Experimental data as given in patent US8410139B2, “Prodrugs of a piperidinyl derivative as modulators of chemokine receptor activity” (Bristol-Myers Squibb Company, priority 2009, dated 2013).
≈ marks a conversion by molar mass, not a printed value. Like-named read-outs stand apart in the source and are kept apart here.

What was measured:
[1] = Thermodynamic equilibrium aqueous solubility assay; format: physicochemical; conditions: thermodynamic from solid; for solubility thermodynamic: aqueous solvent, read-out: Aq. sol., mg/mL (pH)
Protocol: Thermodynamic Equilibrium Aqueous Solubility Assay
The calibration standard is prepared by accurately weighing 0.5-0.7 mg of sample in 5 ml of methanol. If the material is not fully soluble in methanol, other solvents such as DMSO or mixed solvents will be used.
*The calibration standard is typically prepared fresh immediately before the start of the assay. A two-point calibration curve should be used to determine the concentration of the final solution. A serial dilution is performed on the standard solution.
The final saturated solution is prepared by adding 1.0 ml of the appropriate aqueous solvent to the remaining portion of material (˜1 mg/l ml) into a 1 dram vial. The solution is sonicated and vortexed for ˜30 seconds. The sample solution is placed on an orbiter that continually agitates the sample solutions for 15-24 hours at room temperature. The final saturated solution is then transferred to a 1.5 ml Eppendorf tube and centrifuged for ˜2 min. at 10000 rpms. The supernatant from the saturated solution is transferred to a glass HPLC vial without filtering since the 1.5 mL volume is insufficient to saturate a syringe filter. This sample preparation procedure nullifies the effects of non-specific binding to the filtering apparatus.
The standards and sample are analyzed by HPLC using either UV/Vis diode array or variable wavelength detection. Typical quantitation wavelengths are 210 or 254 nm; detection wavelength can be individually customized to optimize sensitivity. In addition to UV detection, mass spectrometry detection is recommended if available in order to confirm the identity of the HPLC-UV peak of interest.
Dilutions of aqueous test solutions are performed if HPLC-UV peak is beyond the linear portion of the standard calibration curve. Typical dilutions include 100 ul/900 ul (×10) or 500 ul/500 ul (2×), as required.
HPLC grade solvents are employed.

[2] = Solution stability assay (pH 1.0 and pH 7.4, 37° C.); format: physicochemical
Protocol: Acetonitrile Stock Solution: Prepare an Acetonitrile Stock Solution of the prodrug by dissolving 1.5-2.0 mg of accurately weighted compound in 5.0 mL of acetonitrile in 5 mL volumetric flask.
(§1) pH 7.4 Buffer Working Solution: Prepare a pH 7.4 Buffer working Solution of drug by adding 1.5 mL of the Acetonitrile Stock Solution to 3.5 mL of stability buffer in a 20 mL scintillation vial, mix very well. Using a 3 mL syringe withdraw ˜3 mL of solution and filter using the Gelman 0.45 μm syringe filter into a clean 1.5 mL LC vial. This filtered solution will be used to evaluate the prodrug degradation throughout the course of the study. Target concentration: 90-120 μg/mL (70% Aqueous: 30% Acetonitrile)
as §1, with “1.0 Acidic” for “7.4 Buffer”, “pH1.0 Working” for “pH 7.4 Buffer working”
Following the sample preparation procedure described above a single sample (n=1) is prepared for each pH condition. The samples were then placed in an HPLC autosampler maintained at 37° C. and samples were analyzed over a 24 hr period. Prodrug remaining (%) is reported relative to the initial peak area (t=0 h). In cases where a conversion to parent half-life could be calculated, a t1/2 was generated. Confirmation of the conversion to parent from the prodrug was obtained by LCMS and HPLC analysis of the final timepoint samples.
Typical LC parameters are shown below:
• HPLC System: HP1100 Series, Hewlett Packard., Heated autosampler • Analytical column. Synergi 4u Hydro C18, 4.6 mm×5.0 cm, Phenomenex • Column temperature: 40° C. • Autosampler temp: 37° C. • Flow rate: 1.0 mL/min • Injection Volume: 10 μL • Mobile Phase: A: Acetonitrile • B: 0.1% Phosphoric acid in water • Run Time: 14.0 minutes • Typical LCMS parameters are shown below: • LC-MS System: Surveyor HPLC system, ThermoFinnigan LCQ Deca XP Max (Ion trap) • Analytical column. Synergi 4u Hydro C18, 4.6 mm×5.0 cm, Phenomenex • Column temperature: 40° C. • Autosampler temp: 22° C. • Flow rate: 1.0 mL/min • Injection Volume: 5 […] • Mobile Phase: A: 95% Acetonitrile/5% 20 mM Ammonium Acetate • B: 5% Acetonitrile/95% 20 mM Ammonium Acetate • LCQ Parameters • Sheath Flow Rate: 81.64 • Aux/Sweep Flow Rate: 19.01 • Current (uA): 10.89 • Voltage (kV): 5.00 • Capillary©: 348.10 • Capillary Voltage (V): 30.44

[3] = pH 1, conversion of the prodrug to compound 1, 37° C., read-out: Aq. Stability half-life (pH 1/7.4) Hrs (converted)
[4] = pH 7.4, conversion of the prodrug to compound 1, 37° C., read-out: Aq. Stability half-life (pH 1/7.4) Hrs (converted)

With CC(C)[C@@H](NC(=O)NCC(C)(C)OC(=O)OCOC(=O)C1(N)CC1)C(=O)N1CC[C@](O)(c2ccc(Cl)cc2)C(C)(C)C1 [Example 14] the solubility thermodynamic ([1]; pH 7.4, aqueous buffer) was 0.18 mg/mL (≈ 295 µM), the half-life [2, 3] was 49 h and the half-life [2, 4] was 107 h.
Work on CC(=O)OCOC(=O)OC(C)(C)CNC(=O)N[C@@H](C(=O)N1CC[C@](O)(c2ccc(Cl)cc2)C(C)(C)C1)C(C)C [Example 15] yielded a solubility thermodynamic ([1]; pH 7.4, aqueous buffer) of 0.022 mg/mL (≈ 38.6 µM), a half-life [2, 3] of over 22 h and a half-life [2, 4] of over 22 h.
With COC(=O)CCC(=O)OC(C)(C)CNC(=O)N[C@@H](C(=O)N1CC[C@](O)(c2ccc(Cl)cc2)C(C)(C)C1)C(C)C [Example 18] the solubility thermodynamic ([1]; pH 7.4, aqueous buffer) was 0.059 mg/mL (≈ 104 µM), the half-life [2, 3] was over 22 h and the half-life [2, 4] was over 22 h.
Work on CC(C)[C@@H](NC(=O)NCC(C)(C)O)C(=O)N1CC[C@](OCOP(=O)(O)O)(c2ccc(Cl)cc2)C(C)(C)C1 [Example 28] yielded a solubility thermodynamic ([1]; pH 6.5, aqueous buffer) of 7.1 mg/mL (≈ 12600 µM), a half-life [2, 3] of 1.4 h and a half-life [2, 4] of over 22 h.
CC(C)[C@@H](NC(=O)NCC(C)(C)OC(=O)Cc1ccc(OP(=O)(O)O)cc1)C(=O)N1CC[C@](O)(c2ccc(Cl)cc2)C(C)(C)C1 [Example 24] gave a solubility thermodynamic ([1]; pH 6.5, aqueous buffer) of 1.1 mg/mL (≈ 1650 µM), a half-life [2, 3] of 77 h and a half-life [2, 4] of over 22 h.
CC(C)[C@@H](NC(=O)NCC(C)(C)OC(=O)CN)C(=O)N1CC[C@](O)(c2ccc(Cl)cc2)C(C)(C)C1 [Example 1, 1-(3-((R)-1-((S)-4-(4-chlorophenyl)-4-hydroxy-3,3-dimethylpiperidin-1-yl)-3-methyl-1-oxobutan-2-yl)ureido)-2-methylpropan-2-yl 2-aminoacetate] gave a solubility thermodynamic ([1]; pH 6.5, aqueous buffer) of 1.1 mg/mL (≈ 2150 µM), a half-life [2, 3] of 159 h and a half-life [2, 4] of 86 h.
Molecule CC(C)[C@@H](NC(=O)NCC(C)(C)OC(=O)OCOC(=O)Cc1ccc(OP(=O)(O)O)cc1)C(=O)N1CC[C@](O)(c2ccc(Cl)cc2)C(C)(C)C1 [Example 9] has a solubility thermodynamic ([1]; pH 6.5, aqueous buffer) of 1.6 mg/mL (≈ 2160 µM), a half-life [2, 3] of 25 h and a half-life [2, 4] of 72 h.
CC(C)[C@@H](NC(=O)NCC(C)(C)O)C(=O)N1CC[C@](O)(c2ccc(Cl)cc2)C(C)(C)C1 [Compound 1, 1-((R)-1-((S)-4-(4-chlorophenyl)-4-hydroxy-3,3-dimethylpiperidin-1-yl)-3-methyl-1-oxobutan-2-yl)-3-(2-hydroxy-2-methylpropyl)urea] showed a solubility ([1]; aqueous buffer, pH 6.6 buffer) of 47 µg/mL (≈ 104 µM), a half-life ([2]; pH 1, parent compound, read-out: chemical stability half-life (converted)) of 30 h and a half-life ([2]; pH 7.4, parent compound, read-out: chemical stability half-life (converted)) of over 22 h.
